Data set [1] deals with MHC, IGF-IR, p-AKT, p-Foxo3a, MuRF1 in C2C12. Nature of the data set: Western blot of muscle generation and degradation proteins in CCM-treated cells. In kind it is cell-based, mouse.
Description: Meanwhile, to evaluate the effect of the apigenin-glycated albumin composite on the expression of genes related to muscle generation and degradation, proteins were extracted from the cells of each experimental group and analyzed via western blotting.
Data set [2] deals with Mouse muscle cells (C2C12). Nature of the data set: Cytotoxicity by DAPI nuclei count. It counts as cell-based. Particulars: apigenin 2.5 and 5 μM, 96 hours. The method, then:
After 96 hours of incubation, cell nuclei were stained with DAPI.

Data set [3] deals with RAW cells polarized from M0 to M1. Briefly: M1-type macrophage inhibition: cell morphology and intracellular/extracellular ROS levels. In kind it is cell-based.
The subject of data set [4] is MHC, MyoG (myogenin) in C2C12. Nature of the data set: Western blot of MHC and MyoG in cisplatin-treated cells. In kind it is cell-based, mouse. The settings on record: reduced by cisplatin treatment. How it is done:
Additionally, proteins were extracted from each experimental cell group, and western blot analysis was conducted to examine the expression level of MyoG (myogenin), which induces muscle generation.

The subject of data set [5] is Mouse muscle cells (C2C12). Briefly: Muscle cell atrophy induced by cisplatin: myotube differentiation by immunofluorescence. It counts as cell-based. Particulars: 40 μM cisplatin, 2.5 and 5 μM, 48 hours.
For data set [6], the system named is Mouse muscle cells (C2C12). Briefly: Muscle atrophy induced by cancer cell-conditioned medium (CCM, CT26): myotube differentiation by immunofluorescence. It counts as cell-based. The settings on record: CCM-induced atrophied cells, 2.5 μM, 48 hours. The method, then:
First, mouse muscle cells (C2C12) were cultured, and the culture medium was replaced with cancer cell-conditioned medium (CCM) from cultured CT26 (colon carcinoma) cells to induce muscle atrophy.
Mouse muscle cells (C2C12) were first cultured, and then their medium was replaced with cancer cell-conditioned medium (CCM) from cultured mouse colon carcinoma cells (CT26) to induce muscle atrophy. The cells were treated with either 2.5 μM of ursolic acid alone or ursolic acid-glycated albumin and incubated for 48 hours. Thereafter, fluorescence expression was confirmed to evaluate the level of myotube differentiation.
Mouse muscle cells (C2C12) were first cultured, and their medium was replaced with cancer cell-conditioned medium (CCM) from cultured mouse colon carcinoma cells (CT26) to induce muscle atrophy. The cells were treated with either 2.5 μM of soyasapogenol B alone or soyasapogenol B-glycated albumin and incubated for 48 hours. Thereafter, fluorescence expression was confirmed to evaluate the level of myotube differentiation.
Mouse muscle cells (C2C12) were first cultured, and their medium was replaced with cancer cell-conditioned medium (CCM) from cultured mouse colon carcinoma cells (CT26) to induce muscle atrophy. The cells were treated with either 2.5 μM of citrusinol alone or citrusinol-glycated albumin and incubated for 48 hours. Thereafter, fluorescence expression was confirmed to evaluate the level of myotube differentiation.

Consider `O=c1cc(-c2ccc(O)cc2)oc2cc(O)cc(O)c12` [apigenin], for which, in data set [1] (CCM treatment), the “expression of IGF-IR” value is listed as “increased expression”, the “expression of MHC” value is on record as “increased expression”, the “expression of p-AKT” value is given as “increased expression” and the “expression of p-Foxo3a” value is given as “increased expression”. Besides, in data set [1] (elevated by CCM treatment), the MuRF1 expression entry is “reduced”. Further, the “cytotoxicity (number of DAPI-stained nuclei)” value in data set [2] is listed as “neither the apigenin alone nor the apigenin-glycated albumin composite exhibited cytotoxicity”. The RAW cell morphology result in data set [3] (RAW cells polarized from M0 to M1, FIG. 7a) was “maintained in the M0 type”. Besides, the “ROS levels (intracellular/extracellular)” value in data set [3] (RAW cells polarized from M0 to M1, FIG. 7b) is on record as “ROS reduction was observed”. For the same compound, in data set [4], the MHC expression entry is recorded as “increased” and the MyoG expression result is reported as “increased”. Further, the “atrophy caused by cisplatin” value in data set [5] is reported as “inhibited”.
On to `CC1(C)C=Cc2c(cc(O)c3c(=O)c(O)c(-c4ccc(O)cc4)oc23)O1` [citrusinol], for which, in data set [6], the “MHC expression (immunofluorescence)” value is listed as “increased”.
Consider `CC1(C)C[C@@H](O)[C@]2(C)CC[C@]3(C)C(=CC[C@@H]4[C@@]5(C)CC[C@H](O)[C@](C)(CO)[C@@H]5CC[C@]43C)[C@@H]2C1` [soyasapogenol B], for which the “MHC expression (immunofluorescence)” value in data set [6] is given as “increased”.
Turning to `C[C@H]1[C@H](C)CC[C@]2(C(=O)O)CC[C@]3(C)C(=CC[C@@H]4[C@@]5(C)CC[C@H](O)C(C)(C)[C@@H]5CC[C@]43C)[C@H]12` [ursolic acid], in data set [6], the “MHC expression (immunofluorescence)” value is given as “increased”.

The record behind these values is patent publication US20250367305A1, “ALBUMIN NANOCOMPOSITE COMPRISING PHYTOCHEMICAL AND COMPOSITION FOR IMPROVING MUSCLE DISEASE CONTAINING SAME” (SEOUL NATIONAL UNIVERSITY R&DB FOUNDATION, priority 2023, published 2025).
